Data on 1 compound can be found in PMC5996347, “2-Mercapto-Quinazolinones as Inhibitors of Type II NADH Dehydrogenase and Mycobacterium tuberculosis: Structure–Activity Relationships, Mechanism of Action and Absorption, Distribution, Metabolism, and Excretion Characterization” (ACS Infectious Diseases, 2018).

Each structure is given as a SMILES string. Read-outs that look alike come from different tables or passages of the source.

Series [1] relates to M. tuberculosis H37Rv. Description: H37Rv MIC in GAST medium. Format: cell-based, Mycobacterium tuberculosis. To be noted: Mycobacterium tuberculosis, H37RV.
A further series can be described thus: Mouse pharmacokinetics. Format: in vivo, female C57Bl/6 mice. To be noted: female. On the procedure: Test compound was dosed as a bolus solution intravenously at 3 mg free base/kg (dose volume: 5 mL/kg; dose vehicle: 10% DMSO; 40% PEG400; 50% saline) to female C57Bl/6 mice (n = 3) or dosed orally by gavage as a suspension at 10 or at 5, 30, or 100 mg free base/kg (dose volume: 10 mL/kg; dose vehicle: 1.0% carboxy methyl cellulose) to female C57Bl/6 mice (n = 3/dose level). Blood samples were taken from each mouse tail vein at predetermined time points postdose, mixed with nine volumes of distilled water, and stored frozen until UPLC-MS/MS analysis. Pharmacokinetic parameters were derived from the blood concentration time curve using PK Solutions software v 2.0 (Summit Research Services, USA).

Series [2] deals with T1, recombinant MBP-MtNdh (MTb NDH-2) (Mycobacterium tuberculosis, UniProt P95160).
T1 construct: The ORF corresponding to Rv1854c was codon optimized for E. coli; made in house; host or cells: E. coli BL21 (DE3) pLysS
Briefly: Ndh activity assay (NADH oxidation at 340 nm). Format: biochemical.

The subject of series [3] is M. tuberculosis H37Rv. Briefly: Extracellular flux analysis (oxygen consumption rate). To be noted: 1 at 39 μM, 7 at 45 μM.
The mark [4] stands for this setting: C57Bl/6, mouse, in vivo, po, 10 mg/kg.

T1 sequence (P95160 whole entry): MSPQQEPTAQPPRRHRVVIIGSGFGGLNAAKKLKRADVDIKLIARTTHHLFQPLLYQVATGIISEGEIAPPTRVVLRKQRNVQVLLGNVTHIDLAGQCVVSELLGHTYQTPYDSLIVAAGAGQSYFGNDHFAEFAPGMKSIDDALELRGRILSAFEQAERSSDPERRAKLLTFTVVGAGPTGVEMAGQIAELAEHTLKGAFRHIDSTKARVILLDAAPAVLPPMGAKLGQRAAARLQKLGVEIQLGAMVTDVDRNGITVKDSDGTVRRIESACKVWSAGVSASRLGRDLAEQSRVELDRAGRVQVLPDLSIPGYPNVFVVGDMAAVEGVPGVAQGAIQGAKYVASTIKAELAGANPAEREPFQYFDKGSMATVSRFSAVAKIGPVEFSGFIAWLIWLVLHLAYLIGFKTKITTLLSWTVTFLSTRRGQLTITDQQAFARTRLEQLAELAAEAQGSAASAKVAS

Regarding `O=C(CSc1nc2ccccc2c(=O)[nH]1)NC1CCCCC1` [Compound 1, N-Cyclohexyl-2-((4-oxo-3,4-dihydroquinazolin-2-yl)thio)acetamide], the MIC with M. tuberculosis H37Rv [1] (read-out: GAST MIC) was found to be 0.3 µM. Besides, the MIC with M. tuberculosis H37Rv [1] (read-out: GAST MIC in ng/mL) turned out to be 95 ng/mL. In the series “Mouse pharmacokinetics” (C57Bl/6, mouse, in vivo), this compound came in with a Clb of 23 mL/min/kg, a Vd of 0.8 L/kg and a bioavailability of 46%. Moreover, in “Mouse pharmacokinetics” (setting [4]), the AUC(0-t) was 2610 ng·h/mL and the Cmax was found to be 748 ng/mL. For the same compound, the half-life in “Mouse pharmacokinetics” (C57Bl/6, whole blood, C57 mouse PK at 3 iv and 10 po (mg/kg), 1 free base, 7 HCl salt) is 90 min. The IC50 in series [2] (NADH 250 μM, Q2 40 μM, mean ± SD, Figure 6 inset, read-out: IC50 against MBP-MtNdh) amounted to 23 ± 8 nM. Also, in series [2] (varying Q2 or NADH, double reciprocal plots, read-out: Ki against MtNdh), the Ki fell in the range of 30 to 40 nM. The “Mode of inhibition against MtNdh” value in series [2] (versus Q2 and NADH) is reported as “noncompetitive mode of inhibition with both substrates”. In addition, the “Effect on maximal respiration after CCCP uncoupling” value in the series on M. tuberculosis H37Rv [3] (CCCP 3 μM, compared to untreated control) is “significantly diminished maximal respiration”. The “Effect on basal MTb OCR” value with M. tuberculosis H37Rv [3] (~45 min, glucose or palmitate) is listed as “minimal effect”.
